Measured values from article PMC3098202, “Inhibition of Both HIV-1 Reverse Transcription and Gene Expression by a Cyclic Peptide that Binds the Tat-Transactivating Response Element (TAR) RNA” (PLoS Pathogens, 2011).
Like-named read-outs stand apart in the source and are kept apart here. Peptide text beside a SMILES is read from it.

Columns and labels:
HIV-1Luc-AM = format: cell-based
HIV NL4-3 = assay: Inhibition of HIV NL4-3 in PHA/IL-2 stimulated human PBMC; format: cell-based, HIV-1; conditions: Human immunodeficiency virus 1, NL43; human PBMC stimulated with PHA/IL-2; RT activity in supernatant at 8 and 10 days post-infection
Procedure: Figure 2 Testing the susceptibility of HIV-1 to inhibition by Tat peptidomimetics. (A) Comparison of the relative inhibition of the HIV-1 NL4-3 laboratory strain by three lead Tat peptidomimetics. Virus production in cell free supernatant was measured using an endogenous RT assay. […] (D) L-50 inhibition of viral replication of three primary CCR5-tropic HIV-1 isolates measured in U87.CD4.CCR5 cells (A1 is the subtype A Rawandan isolate A1-92RW009, B5 is the subtype B isolate B5-91US056 from the USA and C5 is the subtype C isolate C5-97ZA003 from South Africa) and of CXCR4-tropic strains (D1 is the Ugandan subtype D isolate D1-92UG021, E6 is the subtype A/E circulating recombinant isolate CRF01_AE from Thailand) as well as the laboratory strain HIV-1NL4-3 measured in U87.CD4.CXCR4 cell cultures. […] (E) Inhibition of HIV NL4-3 was also measure in human peripheral blood mononuclear cells stimulated with PHA/IL-2. […] Virus production was measured at 8 and 10 days post-infection by the RT activity in the supernatant (cpm/mL).
Drug sensitivity assays were performed on U87.CD4.CXCR4/CCR5 cells and in peripheral blood mononuclear cells (PBMC). […] Supernatant aliquots were removed and virus production was quantified by reverse transcriptase assay. […] Cells were incubated for 72 h and then treated with lysis buffer and luciferase activity was determined. […]

[1] = system: murine leukemia virus (MLV); format: cell-based
HIV-1NL4-3 [2] = assay: Inhibition of HIV-1 NL4-3 replication in U87.CD4.CXCR4 cells (RT activity in supernatant); format: cell-based
Procedure: Drug sensitivity assays were performed on U87.CD4.CXCR4/CCR5 cells and in peripheral blood mononuclear cells (PBMC). Peptidomimetics or control drugs were added to cells to yield final concentrations between 100 µM and 10 nM. Cells were incubated with drug for 1 h and exposed to the virus at a multiplicity of infection of 0.001, incubated with the virus for 24 h, and input virus washed away. Supernatant aliquots were removed and virus production was quantified by reverse transcriptase assay. Virus production at each drug concentration was normalized and the relative values were plotted versus drug concentration to determine 50% inhibitory concentrations (IC50). Variations on these drug susceptibility assays are defined in each figure and related text. For the time-of-drug-inhibition experiments, HIV-1 was spinonculated onto U87-CD4/CCR5 cells as previously described. The cells were washed twice with cold phosphate buffered saline (PBS) to remove unbound virions. Cells were resuspended in cold medium and split into 96-well plates (50 µl/well). […] Cells were incubated for 72 h and then treated with lysis buffer and luciferase activity was determined. The same procedure was utilized for the time-of-drug-addition experiment involving cell-to-cell fusion. […]

[3] = system: HIV-1NL4-3 carrying firefly luciferase; format: cell-based; conditions: for t1/2, time of drug addition that maintains 50% inhibition: AMD3100 10 µM, T20 10 µM, 3TC 100 µM, Raltegravir 10 µM, DRB 50 µM
[4] = system: HIV-1NL4-3 carrying firefly luciferase; conditions: cited from earlier work
Text: There is also evidence that Tat plays a role in viral reverse transcription, although much of this work has been controversial. Loss of function Tat mutants have been reported to impair reverse transcription 3- to 5-fold compared to wild type HIV-1 both in infected T cells and in endogeneous reverse transcription reactions, [69]. Tat-mediated RNA secondary structure remodeling may facilitate obligatory strand transfers during viral DNA synthesis by reverse transcriptase. However, it is possible to create replication-competent viruses where the TAR RNA sequence is replaced by a ...

[5] = system: HIVNL4-3 transcription / virus production; assay: Single-cycle growth assay, 293T cells transfected with pNL4-3 (Figure 3C); conditions: 50 µM; 293T cells transfected with HIVNL4-3; monitored by RT activity
HIV-1 LTR promoter = assay: pLTR.LUC reporter alone or co-transfected with HIV-1NL4-3 in 293T cells (Figure 4); format: cell-based
BIV TAR RNA = conditions: Discussion; cited from earlier work
Text: Our design of inhibitors of the TAR RNA-Tat protein interaction started with the assumption that constrained peptidomimetics would provide effective rationale to block the relatively large interfaces formed between the viral protein and its cognate RNA [24]–[27]. The D-Pro-L-Pro template restricts pharmacophores into planar ß-hairpin structures with side chains emerging from each side. […] Specific and high affinity binding allow ...

HIV-1 TAR = conditions: cited from earlier work
Text: Linear peptide derivatives have been used previously to target TAR RNA and block Tat binding, [17], [20], [21] but their utility was limited by conformational flexibility which allowed non-specific RNA binding. To avoid this problem we have developed conformationally constrained mimics of HIV-1 Tat [24]–[27] based on the structure of the BIV (Bovine Immunodeficiency Virus) Tat-TAR complex, [29] (Figure 1). Specifically, we constructed a series of ß-hairpin mimics with 12-residue loops on a heterochiral D-Pro-L-Pro dipeptide scaffold. This D-Pro-L-Pro scaffold strongly ... || Our design of inhibitors of the TAR RNA-Tat protein interaction started with the assumption that constrained peptidomimetics would provide effective rationale to block the relatively large interfaces formed between the viral protein and its cognate RNA [24]–[27]. The D-Pro-L-Pro template restricts pharmacophores into planar ß-hairpin structures with side chains emerging from each side. […] Specific and high affinity binding allow ...

[6] = system: Tat-mediated transactivation of HIV-1 LTR; assay: LTR-luciferase reporter + Tat in 293T cells (Figure 3B); format: cell-based; conditions: 10 µM
[7] = system: Tat/Rev-dependent luciferase after 293T (HIV-1 Env) / U87.CD4.CXCR4 cell fusion; conditions: for t1/2, time of drug addition that maintains 50% inhibition, cell-to-cell fusion: monophasic, Tat/Rev-dependent luciferase in cell lysates, triplicate
[8] = system: (-) strand strong stop DNA synthesis by HIV-1 RT on mutant TAR template; assay: Reconstituted in vitro reverse transcription, mutant TAR RNA template; format: biochemical; conditions: 8 µM
Text: To determine if L-50 inhibition of reverse transcription was dependent on the high affinity Tat-binding site located at the TAR bulge, mutations that inactivate Tat-binding were introduced into the RNA template (Figure 9A).
The mutant TAR RNA transcript (with mutations 5′-UCUG-3′ to 5′-UGGU-3′ in the bulge) was generated by T3 transcription from a PCR product with the forward primer having the nt substitutions for site-directed mutagenesis. […] The DNA primer (18 nt), complementary to the primer binding sequence (3′ end of tRNA^Lys,3), was annealed to the template as described [78]. The DNA primer was annealed to the various HIV-1 RNA templates by denaturation and annealing conditions previously described [78]. […] Reactions were incubated at 37°C for 45 min and then quenched with formamide EDTA loading buffer [78] for subsequent electrophoresis on a 8% denaturing polyacrylamide gel. Gels were autoradiographed and analyzed with a BioRad phosphorimager.

[9] = system: Tat-dependent transcription from HIV-1 LTR; assay: Tat-dependent transactivation in cell-free transcription; format: biochemical
HIV-1NL4-3 [10] = assay: Infection of U87.CD4.CXCR4 cells with supernatants of L-50-treated 293T transfections (Figure 4D); format: cell-based
Procedure: To test whether the virus released from transfected cells could be inhibited by L-50 under conditions of multiple-cycle growth, virus-containing supernatants from 293T transfections (containing L-50) were used to infect U87.CD4.CXCR4 cells (which support multiple rounds of HIV-1 replication) and viral progeny were measured 10 days post-infection. […] Removal of L50 from virus was attempted by pelleting virus from supernatant of L50-treated cells transfected with NL4-3. It is important to note that virus production was already decreased by L50 at least 50% from transfected cells.

[11] = system: (-) strand strong stop DNA synthesis by recombinant HIV-1 RT (p66/p51) on wild type TAR template; assay: Reconstituted in vitro reverse transcription, wild type R_U5_pbs RNA template; format: biochemical
Text: This assay measures the synthesis of (-) strand strong stop DNA by recombinant HIV-1 RT (p66/p51) from an 18 nt DNA primer, pre-annealed to an HIV-1 RNA template encompassing the repeat (R), 5′ unique sequence (U5), and the primer binding sequence (PBS) [49].
HIV-1 RNA representing the wild type R, U5, pbs, and uncoding sequence (270 nt) (wt R_U5_pbs RNA) was produced by in vitro T3 transcription (T3 MegaScript, Ambion) from a PCR product (with T3 extended primer) derived from NL4-3. […] The DNA primer (18 nt), complementary to the primer binding sequence (3′ end of tRNA^Lys,3), was annealed to the template as described [78]. The DNA primer was annealed to the various HIV-1 RNA templates by denaturation and annealing conditions previously described [78]. […] Reactions were incubated at 37°C for 45 min and then quenched with formamide EDTA loading buffer [78] for subsequent electrophoresis on a 8% denaturing polyacrylamide gel. Gels were autoradiographed and analyzed with a BioRad phosphorimager.

CMV promoter = CMV promoter luciferase control reporter in 293T cells; format: cell-based
[12] = U87.CD4.CXCR4 cells, Tat-independent SV40-driven reporter
[13] = synchronized infection, luciferase at 72 h, triplicate
[14] = L50 250 µM, synchronized infection, luciferase at 72 h, triplicate

## Nc1ccn([C@@H]2CS[C@H](CO)O2)c(=O)n1 [3TC]
HIV-1Luc-AM; [12]
  Luciferase expression in HIV-1Luc-AM infected cells: efficiently inhibited
HIV NL4-3
  IC50: 10 nM
[1]
  Inhibition of MLV replication (words, Discussion): blocked MLV replication
HIV-1NL4-3 [2]; Human immunodeficiency virus 1, virus production by RT assay, MOI 0.001
  IC50: 120 ± 30 nM

## Cc1nnc(C(=O)NC(C)(C)c2nc(C(=O)NCc3ccc(F)cc3)c(O)c(=O)n2C)o1 [Raltegravir, reference compound]
[3]; [13]
  t1/2, time of drug addition that maintains 50% inhibition: 11.5 h

## Cc1ccnc2c1NC(=O)c1cccnc1N2C1CC1 [NVP]
[4]
  t1/2 of nevirapine in time-of-drug-addition: ~7 h
HIV NL4-3
  IC50: 65 nM

## CC[C@H](C)[C@@H]1NC(=O)[C@H](CCCNC(=N)N)NC(=O)[C@H](CCCNC(=N)N)NC(=O)[C@H](CCCCN)NC(=O)CNC(=O)[C@H](CCCNC(=N)N)NC(=O)[C@H]([C@@H](C)O)NC(=O)[C@H](CCCNC(=N)N)NC(=O)[C@H](C(C)C)NC(=O)[C@H](CCCNC(=N)N)NC(=O)[C@@H]2CCCN2C(=O)[C@H]2CCCN2C(=O)[C@H](CCCNC(=N)N)NC(=O)[C@H](CCCNC(=N)N)NC1=O [L-50] (HELM PEPTIDE1{R.V.R.T.R.G.K.R.R.I.R.R.[dP].P}$PEPTIDE1,PEPTIDE1,1:R1-14:R2$$$V2.0)
[5]
  Inhibition of production of the viral RNA: 76%
HIV-1 LTR promoter; 200 µM, 293T cells, p = 0.03, N = 5
  Decrease in luciferase expression (pLTR.LUC + HIV-1NL4-3): 1.7 fold
HIV-1 LTR promoter; 200 µM, RT activity in cell-free supernatant of transfected 293T cells
  HIV-1 virion expression: modest, but reproducible reduction
HIV-1 LTR promoter; 293T cells, no Tat
  Luciferase expression in cells transfected with either reporter plasmid alone: did not inhibit
BIV TAR RNA
  Discrimination against BIV TAR RNA sequence: effectively discriminated
HIV-1Luc-AM
  Luciferase expression in HIV-1Luc-AM infected cells: efficiently blocked
HIV-1 TAR; Discussion
  Affinity for HIV-1 TAR: nanomolar affinities
HIV-1 TAR; in vitro
  Kd: 1 nM
[6]
  Reduction of Tat-mediated transactivation: 53%
[7]
  Inhibition of cell-to-cell fusion: no measurable inhibition
  t1/2, time of drug addition that maintains 50% inhibition, cell-to-cell fusion: 8.2 h
[8]
  Inhibition of (−) strong stop DNA synthesis on template with mutations in the TAR L-50 binding site: less than 10%
[9]; cell-free transcription, nuclear extract, recombinant Tat, 20 min at 30°C, read-out: IC50, decrease of full-length transcripts (ρ)
  IC50: 50 nM
[9]; internal control for non-specific inhibition of transcription
  Production of short transcripts (τ): largely unaffected
[1]
  Inhibition of MLV: did not inhibit
  Inhibition of MLV replication (words, Discussion): did not
HIV-1NL4-3 [10]; 293T cells transfected with NL4-3
  Decrease of virus production from transfected cells: at least 50%
HIV-1NL4-3 [10]; U87.CD4.CXCR4 cells infected with virus made in the presence of L-50
  Viral progeny 10 days post-infection: No measurable viral progeny
[3]; [14]
  t1/2, first (early) phase of biphasic inhibition: 1.8 h
  t1/2, second (late) phase of biphasic inhibition: 35.7 h
[3]; added up to approximately 2 h post infection
  Block of viral replication in the initial inhibitory phase: ~100%
HIV-1NL4-3 [2]; Figure 2A
  Inhibition of HIV-1NL4-3 replication: able to inhibit replication
[11]; 8 µM
  Inhibition of (−) strong stop synthesis on the wild type template: 80%
[11]; read-out: IC50, inhibition of (−) strand strong stop DNA synthesis (as printed in picture of Figure 8B)
  IC50: 5500 ± 570 nM
[11]; recombinant HIV-1 RT, 18 nt DNA primer, RNA template ∼2 µM, 37°C 45 min, triplicate, read-out: IC50, inhibition of (−) strand strong stop DNA synthesis
  IC50: 5500 ± 570 nM
CMV promoter; 10 µM, 293T cells
  Reduction of transcription from control CMV promoter: 12%
CMV promoter; 50 µM, 293T cells cotransfected with HIVNL4-3
  Reduction of CMV promoter-driven luciferase activity: less than 5%
CMV promoter; 293T cells, Figure 4B
  CMV promoter-driven luciferase expression with HIV-1NL4-3: not significantly inhibited

## c1cc(CN2CCCNCCNCCCNCC2)ccc1CN1CCCNCCNCCCNCC1 [AMD3100, reference compound]
[7]
  Inhibition of cell-to-cell fusion: highly sensitive to inhibition
[3]; [13]
  t1/2, time of drug addition that maintains 50% inhibition: 0.77 h

## Cc1cn([C@H]2C[C@H](N=[N+]=[N-])[C@@H](CO)O2)c(=O)[nH]c1=O [AZT]
[1]
  Inhibition of MLV replication (words, Discussion): blocked MLV replication
[1]; 100 µM
  Inhibition of MLV replication: completely blocked

## OC[C@H]1O[C@@H](n2cnc3cc(Cl)c(Cl)cc32)[C@H](O)[C@@H]1O [DRB, 5,6-dichloro-1-ß-D-ribobenzimidazole, reference compound]
HIV-1Luc-AM; [12]
  Luciferase expression in HIV-1Luc-AM infected cells: efficiently inhibited
[7]
  t1/2, time of drug addition that maintains 50% inhibition, cell-to-cell fusion: 11.3 h
[3]; [13]
  t1/2, time of drug addition that maintains 50% inhibition: 35.3 h
